Measured values from patent US8614324B2, “Filamin A binding anti-inflammatory and analgesic” (priority 2008, dated 2013).

How the values were obtained:
[1] = target: T1, mu opiate receptor (MOR) (Rattus norvegicus, UniProt P33535); assay: MOR agonist activity, [35S]GTPγS binding assay using striatal membranes; type: biochemical; design: MOR agonist activity, [35S]GTPγS binding to Gαo: reference not given here
T1 construct: from tissue; host or cells: striatal membrane preparation (rat striatum)
T1 sequence (P33535 whole entry): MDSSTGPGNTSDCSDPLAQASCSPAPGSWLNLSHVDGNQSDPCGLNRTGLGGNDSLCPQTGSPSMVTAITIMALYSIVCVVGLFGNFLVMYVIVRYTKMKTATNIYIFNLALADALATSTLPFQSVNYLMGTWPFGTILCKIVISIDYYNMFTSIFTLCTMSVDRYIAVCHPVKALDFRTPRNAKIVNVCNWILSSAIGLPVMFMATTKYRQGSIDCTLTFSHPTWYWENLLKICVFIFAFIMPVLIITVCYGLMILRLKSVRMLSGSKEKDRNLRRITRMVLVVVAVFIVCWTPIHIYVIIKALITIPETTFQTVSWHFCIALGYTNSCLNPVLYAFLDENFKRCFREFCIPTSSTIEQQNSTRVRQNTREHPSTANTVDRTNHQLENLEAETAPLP
Description: To assess the mu opiate receptor (MOR) agonist activity of positive compounds from the FLNA screening, compounds were tested in a [^35S]GTPγS binding assay using striatal membranes.
Striatal tissue was homogenized in 10 volumes of ice cold 25 mM HEPES buffer, pH 7.4, which contained 1 mM EGTA, 100 mM sucrose, 50 μg/ml leupeptin, 0.04 mM PMSF, 2 μg/ml soybean trypsin inhibitor and 0.2% 2-mercaptoethanol. The homogenates were centrifuged at 800×g for 5 minutes and the supernatants were centrifuged at 49,000×g for 20 minutes. The resulting pellets were suspended in 10 volume of reaction buffer, which contained 25 mM HEPES, pH 7.5, 100 mM NaCl, 50 μg/ml leupeptin, 2 μg/ml soybean trypsin inhibitor, 0.04 mM PMSF and 0.02% […].
The resultant striatal membrane preparation (200 μg) was admixed and maintained (incubated) at 30° C. for 5 minutes in reaction buffer as above that additionally contained 1 mM MgCl2 and 0.5 nM [^35S]GTPγS (0.1 μCi/assay, PerkinElmer Life and Analytical Sciences) in a total volume of 250 μl and continued for 5 minutes in the absence or presence of 0.1-10 μM of an assayed compound of interest. The reaction was terminated by dilution with 750 μl of ice-cold reaction buffer that contained 20 mM MgCl2 and 1 mM EGTA and immediate centrifugation at 16,000×g for 5 minutes.
The resulting pellet was solubilized by sonicating for 10 seconds in 0.5 ml of immunoprecipitation buffer containing 0.5% digitonin, 0.2% sodium cholate and 0.5% NP-40. Normal rabbit serum (1 μl) was added to 1 ml of lysate and incubated at 25° C. for 30 minutes. Nonspecific immune complexes were removed by incubation with 25 μl of protein A/G-conjugated agarose beads at 25° C. for 30 minutes followed by centrifugation at 5,000×g at 4° C. for 5 minutes. The supernatant was divided and separately incubated at 25° C. for 30 minutes with antibodies raised against Gαo proteins (1:1,000 dilutions).
The immunocomplexes so formed were collected by incubation at 25° C. for 30 minutes with 40 μl of agarose-conjugated protein A/G beads and centrifugation at 5,000×g at 4° C. for 5 minutes. The pellet was washed and suspended in buffer containing 50 mM Tris-HCl, pH 8.0, and 1% NP-40. The radioactivity in the suspension was determined by liquid scintillation spectrometry. […] DAMGO (H-Tyr-D-Ala-Gly-N-MePhe-Gly-OH; 1 or 10 μM) was used as a positive control.

[2] = system: IL-6 release from primary human astrocytes; assay: LPS-induced cytokine release from primary human astrocytes, IL-6; type: cell-based
Description: (§1) The following study was undertaken to investigate whether contemplated compounds and (+)NLX affect LPS-induced release of the pro-inflammatory cytokine (IL-1β, IL-6 and TNF-α) release from primary human astrocytes. […]
(§2) Primary astrocytes culture was prepared according to the provider's instructions (Lonza). The adherent astrocytes were trypsinized by 0.25% trypsin-EDTA, then collected and sub-cultured in 12-well plate (1.2 ml/well). […] Vehicle groups were pretreated with 0.1% DMSO only. Following addition of LPS, incubation continued for 24 hours. Culture medium was used as the blank and the levels of cytokines, TNF-α, IL-6 and IL-1β in 200 μl of culture medium were determined. Each well was sampled twice.
(§3) Plates were washed 3 times with ice-cold 50 mM Tris HCl (pH 7.4) and incubated at 30° C. with 200 μl medium derived from the above mentioned conditions. Plates were washed 3 times with ice-cold 50 mM Tris HCl (pH 7.4) and incubated at 30° C. with 0.5 μg/well un-conjugated rabbit anti-anti-INF-α, -IL-6 and -IL-1β for 1 hour. After two 1 minute washes with 50 mM Tris HCl (pH 7.4), each well was incubated in 0.5 μg/well FITC-conjugated anti-rabbit IgG (human and mouse absorbed) for 1 hour at 30° C. Plates were washed twice with 200 μl ice-cold Tris HCl, pH 7.4 and the residual […] signals were determined by multimode plate reader, DTX880 (Beckman).

[3] = system: IL-1β release from primary human astrocytes; assay: LPS-induced cytokine release from primary human astrocytes, IL-1β; type: cell-based
Description: as §1, §2, §3

[4] = system: TNF-α release from primary human astrocytes; assay: LPS-induced cytokine release from primary human astrocytes, TNF-α; type: cell-based
Description: as §1, §2, §3

[5] = Mouse hot-water tail-flick test; type: in vivo; conditions: orally administered
Description: The mouse “tail flick” test was used to assay the relative antinociceptive activity of compositions containing a compound to be assayed. This assay was substantially that disclosed by Xie et al., 2005 J. Neurosci 25:409-416.
The mouse hot-water tail-flick test was performed by placing the distal third of the tail in a water bath maintained at 52° C. The latency until tail withdrawal from the bath was determined and compared among the treatments. A 10 second cutoff was used to avoid tissue damage. Data are converted to percentage of antinociception by the following formula: (response latency−baseline latency)/(cutoff−baseline latency)×100 to generate dose-response curves. […] Relative potency was determined as a ratio of the A50 values.
To assess tolerance to the antinociceptive effect, the compound was administered twice daily for 7 days at an A90 dose (dose that results in a 90% antinociceptive effect in the 52° C. warm-water tail-flick test), and the tail-flick test was performed daily after the a.m. dose. […] Assays were typically carried out separately using at least 32 and 56 mg/kg dosages, with some assays also separately carried out at 18 and 100 mg/kg.

[6] = 0.1 μM compound, striatal membranes
[7] = 1 μM compound + BFNA (1 μM β-funaltrexamine)
[8] = 1 μM compound, striatal membranes
[9] = 10 pM compound 2 hours prior to LPS (1 μg/ml) and continued 24 hours
[10] = 1 nM compound 2 hours prior to LPS (1 μg/ml) and continued 24 hours
[11] = 100 nM compound 2 hours prior to LPS (1 μg/ml) and continued 24 hours
[12] = 100 fM compound 2 hours prior to LPS (1 μg/ml) and continued 24 hours

Q: With `COc1ccc(S(=O)(=O)N2CCOC23CCN(C(C)C)CC3)cc1` [Compound C0133M] as the molecule, how does the “MOR agonist activity, [35S]GTPγS binding to Gαo” value (“MOR agonist activity” for short) [1, 6] read?
A: 139.4%

Q: What about the “MOR agonist activity” value [1, 7] of the same molecule?
A: 72.4%

Q: And the “MOR agonist activity” value [1, 8]?
A: 214.8%

Q: What does the source list for `COc1ccc(S(=O)(=O)N2CCSC23CCNCC3)cc1` [S-C0027]?
A: IL-6 Average % (±SEM) [2, 9]: 75.6 (1.5) %; IL-6 Average % (±SEM) [2, 10]: 77.4 (4.2) %; IL-6 Average % (±SEM) [2, 11]: 83.1 (2.1) %; IL-6 Average % (±SEM) [2, 12]: 81.0 (1.7) %; IL-1β Average % (±SEM) [3, 9]: 85.8 (1.3) %; IL-1β Average % (±SEM) [3, 10]: 81.9 (2.3) %; IL-1β Average % (±SEM) [3, 11]: 79.5 (2.4) %; IL-1β Average % (±SEM) [3, 12]: 86.8 (2.0) %; MOR agonist activity, [35S]GTPγS binding to Gαo [1, 6]: 156.2%; MOR agonist activity, [35S]GTPγS binding to Gαo [1, 7]: 56.2%; MOR agonist activity, [35S]GTPγS binding to Gαo [1, 8]: 286.8%; TNF-α Average % (±SEM) [4, 9]: 73.6 (3.8) %; TNF-α Average % (±SEM) [4, 10]: 72.7 (0.7) %; TNF-α Average % (±SEM) [4, 11]: 74.0 (1.7) %; TNF-α Average % (±SEM) [4, 12]: 77.7 (2.7) %; Maximum Antinociception (%) ([5]; 56 mg/kg): 70%; Time to Max. ([5]; 56 mg/kg): 30 min; Maximum Antinociception (%) ([5]; 100 mg/kg): 90%; Time to Max. ([5]; 100 mg/kg): 30 min

Q: With `CC(=O)c1ccc(S(=O)(=O)N2CC(=O)NC23CCNCC3)cc1` [Compound C0086M] as the molecule, how does the “MOR agonist activity” value [1, 6] read?
A: 206.8%

Q: What about the “MOR agonist activity” value [1, 7] of the same molecule?
A: 152.3%

Q: And the “MOR agonist activity” value [1, 8]?
A: 265.3%

Q: What does the source list for `CC(=O)c1ccc(S(=O)(=O)N2CCOC23CCN(CC(=O)O)CC3)cc1` [Compound C0100M]?
A: MOR agonist activity, [35S]GTPγS binding to Gαo [1, 6]: 173.6%; MOR agonist activity, [35S]GTPγS binding to Gαo [1, 7]: 195.6%; MOR agonist activity, [35S]GTPγS binding to Gαo [1, 8]: 245.9%

Q: With `CN1CC[C@]23c4c5ccc(O)c4O[C@H]2[C@@H](O)C=C[C@H]3[C@H]1C5` [morphine, reference compound] as the molecule, how does the “Maximum Antinociception (%)” value ([5]; 56 mg/kg) read?
A: 43%

Q: What about the “Time to Max.” value ([5]; 56 mg/kg) of the same molecule?
A: 20 min

Q: With `C=CCN1CC[C@]23c4c5ccc(O)c4O[C@H]2C(=O)CC[C@]3(O)[C@H]1C5` [(+)Naloxone, (+)naloxone, reference compound] as the molecule, how does the “IL-6 Average % (±SEM)” value [2, 9] read?
A: 56.9 (4.4) %

Q: And the “IL-6 Average % (±SEM)” value [2, 10]?
A: 6.8 (4.3) %

Q: What about the “IL-1β Average % (±SEM)” value [3, 9] of the same molecule?
A: 75.9 (4.5) %

Q: And the “IL-1β Average % (±SEM)” value [3, 10]?
A: 10.5 (4.8) %

Q: What about the “TNF-α Average % (±SEM)” value [4, 9] of the same molecule?
A: 58.6 (2.0) %

Q: And the “TNF-α Average % (±SEM)” value [4, 10]?
A: 9.2 (6.0) %

Q: What does the source list for `CC(=O)c1ccc(S(=O)(=O)N2CCC3(CC2)NCCS3)cc1` [Compound C0060]?
A: MOR agonist activity, [35S]GTPγS binding to Gαo [1, 6]: 166.5%; MOR agonist activity, [35S]GTPγS binding to Gαo [1, 7]: 143.9%; MOR agonist activity, [35S]GTPγS binding to Gαo [1, 8]: 218.9%

Q: For `CCOC(=O)CN1CCC2(CC1)OCCN2S(=O)(=O)c1ccc(C(C)=O)cc1` [Compound C0099M], which “MOR agonist activity” value [1, 6] is on record?
A: 157.2%

Q: What about the “MOR agonist activity” value [1, 7] of the same molecule?
A: 114.7%

Q: And the “MOR agonist activity” value [1, 8]?
A: 195.7%
